Reference: ChEMBL document CHEMBL3885861, “Open TG-GATES”

Species on record: Rattus norvegicus
Assay: Open TG-GATES - Regimen: Single
Format: toxicity, organism-based, Sprague-Dawley
Set-up: regimen Single, gender Male, age 6 weeks
Conditions: in vivo, po, route gavage; for APTT / Bas / Eos / Fbg / Hb / Ht / Lym / MCH / MCHC / MCV / Mono / Neu / PT / Plat / RBC / Ret / WBC: tissue Blood; for KIDNEY_L / KIDNEY_R / KIDNEY_TOTAL: tissue Kidney; for LIVER: tissue Liver; for A/G / ALP / ALT / AST / BUN / CRE / Ca / Cl / DBIL / GLC / IP / K / LDH / Na / PL / RALB / TBIL / TC / TG / TP / gamma-GTP: tissue Plasma
[1] = 0 mg/kg, 3 h, dose level Control
[2] = 0 mg/kg, 6 h, dose level Control
[3] = 0 mg/kg, 9 h, dose level Control
[4] = 0 mg/kg, 24 h, dose level Control

## Nc1c2c(nc3ccccc13)CCCC2 [TACRINE]
[1]
  TERMINAL_BW: 206.5 g
  APTT: 19.7 s
  Bas: 0%
  Eos: 0.8%
  Fbg: 293.2 mg/dL
  Hb: 13 g/dL
  Ht: 37.9%
  Lym: 81.6%
  MCH: 21.2 pg
  MCHC: 34.2%
  MCV: 61.7 fL
  Mono: 2%
  Neu: 15%
  PT: 16.3 s
  Plat: 114.9 x10_4/uL
  RBC: 614.4 x10_4/ul
  Ret: 7.9%
  WBC: 97 x10_2/uL
  KIDNEY_L: 0.9 g
  KIDNEY_R: 0.9 g
  KIDNEY_TOTAL: 1.8 g
  LIVER: 9.3 g
  A/G: 1.2
  ALP: 1417 IU/L
  ALT: 39.6 IU/L
  AST: 77.8 IU/L
  BUN: 13 mg/dL
  CRE: 0.2 mg/dL
  Ca: 10.6 mg/dL
  Cl: 106.8 meq/L
  DBIL: 0.002 mg/dL
  GLC: 189.6 mg/dL
  IP: 7.9 mg/dL
  K: 3.9 meq/L
  LDH: 229 IU/L
  Na: 142.6 meq/L
  PL: 131.4 mg/dL
  RALB: 3 g/dL
  TBIL: 0.018 mg/dL
  TC: 73.2 mg/dL
  TG: 60 mg/dL
  TP: 5.4 g/dL
  gamma-GTP: 1.2 IU/L
[2]
  TERMINAL_BW: 208.7 g
  APTT: 21.4 s
  Bas: 0%
  Eos: 0.8%
  Fbg: 310.4 mg/dL
  Hb: 13.3 g/dL
  Ht: 38.6%
  Lym: 80.2%
  MCH: 21.1 pg
  MCHC: 34.5%
  MCV: 61.1 fL
  Mono: 2.6%
  Neu: 16%
  PT: 16.1 s
  Plat: 115.4 x10_4/uL
  RBC: 632.2 x10_4/ul
  Ret: 7.7%
  WBC: 96.6 x10_2/uL
  KIDNEY_L: 0.9 g
  KIDNEY_R: 0.9 g
  KIDNEY_TOTAL: 1.9 g
  LIVER: 9 g
  A/G: 1.2
  ALP: 1333 IU/L
  ALT: 38.4 IU/L
  AST: 74.6 IU/L
  BUN: 10.8 mg/dL
  CRE: 0.2 mg/dL
  Ca: 10.6 mg/dL
  Cl: 106.8 meq/L
  DBIL: 0 mg/dL
  GLC: 176.6 mg/dL
  IP: 9.2 mg/dL
  K: 4.6 meq/L
  LDH: 252.4 IU/L
  Na: 142 meq/L
  PL: 137.4 mg/dL
  RALB: 2.9 g/dL
  TBIL: 0.016 mg/dL
  TC: 79.4 mg/dL
  TG: 82 mg/dL
  TP: 5.4 g/dL
  gamma-GTP: 1.2 IU/L
[3]
  TERMINAL_BW: 205.8 g
  APTT: 19.8 s
  Bas: 0%
  Eos: 1%
  Fbg: 285.8 mg/dL
  Hb: 13.2 g/dL
  Ht: 38.4%
  Lym: 81.6%
  MCH: 21.1 pg
  MCHC: 34.2%
  MCV: 61.5 fL
  Mono: 2%
  Neu: 15%
  PT: 16 s
  Plat: 120 x10_4/uL
  RBC: 624.8 x10_4/ul
  Ret: 8.6%
  WBC: 84.5 x10_2/uL
  KIDNEY_L: 0.9 g
  KIDNEY_R: 0.9 g
  KIDNEY_TOTAL: 1.8 g
  LIVER: 8.8 g
  A/G: 1.3
  ALP: 1213.6 IU/L
  ALT: 34 IU/L
  AST: 72.6 IU/L
  BUN: 12.6 mg/dL
  CRE: 0.2 mg/dL
  Ca: 10.4 mg/dL
  Cl: 107 meq/L
  DBIL: 0 mg/dL
  GLC: 185.6 mg/dL
  IP: 9.9 mg/dL
  K: 4.2 meq/L
  LDH: 230.8 IU/L
  Na: 142 meq/L
  PL: 139 mg/dL
  RALB: 3 g/dL
  TBIL: 0.022 mg/dL
  TC: 75.8 mg/dL
  TG: 60.8 mg/dL
  TP: 5.4 g/dL
  gamma-GTP: 1 IU/L
[4]
  TERMINAL_BW: 214.7 g
  APTT: 20.5 s
  Bas: 0%
  Eos: 0.8%
  Fbg: 295.8 mg/dL
  Hb: 13.4 g/dL
  Ht: 38.7%
  Lym: 83%
  MCH: 21.5 pg
  MCHC: 34.8%
  MCV: 61.9 fL
  Mono: 3%
  Neu: 12.4%
  PT: 16.3 s
  Plat: 126.5 x10_4/uL
  RBC: 626.2 x10_4/ul
  Ret: 7.3%
  WBC: 106.1 x10_2/uL
  KIDNEY_L: 0.9 g
  KIDNEY_R: 1 g
  KIDNEY_TOTAL: 1.9 g
  LIVER: 10 g
  A/G: 1.3
  ALP: 1572.4 IU/L
  ALT: 43 IU/L
  AST: 74.4 IU/L
  BUN: 18.8 mg/dL
  CRE: 0.2 mg/dL
  Ca: 10.8 mg/dL
  Cl: 106.8 meq/L
  DBIL: 0.008 mg/dL
  GLC: 191.6 mg/dL
  IP: 7.3 mg/dL
  K: 4.6 meq/L
  LDH: 300.2 IU/L
  Na: 141.4 meq/L
  PL: 154.2 mg/dL
  RALB: 3.1 g/dL
  TBIL: 0.032 mg/dL
  TC: 79.8 mg/dL
  TG: 103 mg/dL
  TP: 5.4 g/dL
  gamma-GTP: 1 IU/L
3 mg/kg, 3 h, dose level Low
  TERMINAL_BW: 208.2 g
  APTT: 21.3 s
  Bas: 0%
  Eos: 0.4%
  Fbg: 283.8 mg/dL
  Hb: 13.4 g/dL
  Ht: 39%
  Lym: 77%
  MCH: 21.5 pg
  MCHC: 34.4%
  MCV: 62.5 fL
  Mono: 2.2%
  Neu: 19.4%
  PT: 16.1 s
  Plat: 120.6 x10_4/uL
  RBC: 623.8 x10_4/ul
  Ret: 8.2%
  WBC: 90.3 x10_2/uL
  KIDNEY_L: 0.9 g
  KIDNEY_R: 0.9 g
  KIDNEY_TOTAL: 1.9 g
  LIVER: 9.4 g
  A/G: 1.3
  ALP: 1562.6 IU/L
  ALT: 45.6 IU/L
  AST: 79.6 IU/L
  BUN: 13.4 mg/dL
  CRE: 0.2 mg/dL
  Ca: 10.7 mg/dL
  Cl: 107 meq/L
  DBIL: 0.002 mg/dL
  GLC: 184.2 mg/dL
  IP: 8 mg/dL
  K: 4 meq/L
  LDH: 251.6 IU/L
  Na: 142.6 meq/L
  PL: 139.2 mg/dL
  RALB: 3 g/dL
  TBIL: 0.024 mg/dL
  TC: 75 mg/dL
  TG: 64 mg/dL
  TP: 5.4 g/dL
  gamma-GTP: 1 IU/L
3 mg/kg, 6 h, dose level Low
  TERMINAL_BW: 200.8 g
  APTT: 20.8 s
  Bas: 0%
  Eos: 0.8%
  Fbg: 312.8 mg/dL
  Hb: 13.6 g/dL
  Ht: 39.2%
  Lym: 78.8%
  MCH: 21.2 pg
  MCHC: 34.6%
  MCV: 61.2 fL
  Mono: 2.4%
  Neu: 17.2%
  PT: 15.6 s
  Plat: 125.6 x10_4/uL
  RBC: 641 x10_4/ul
  Ret: 7.7%
  WBC: 102.1 x10_2/uL
  KIDNEY_L: 0.9 g
  KIDNEY_R: 0.9 g
  KIDNEY_TOTAL: 1.8 g
  LIVER: 8.7 g
  A/G: 1.2
  ALP: 1243.4 IU/L
  ALT: 34.8 IU/L
  AST: 67.2 IU/L
  BUN: 11.4 mg/dL
  CRE: 0.2 mg/dL
  Ca: 10.6 mg/dL
  Cl: 106.8 meq/L
  DBIL: 0.002 mg/dL
  GLC: 175.6 mg/dL
  IP: 9 mg/dL
  K: 4.4 meq/L
  LDH: 200 IU/L
  Na: 142 meq/L
  PL: 148 mg/dL
  RALB: 3.1 g/dL
  TBIL: 0.024 mg/dL
  TC: 76 mg/dL
  TG: 89.6 mg/dL
  TP: 5.5 g/dL
  gamma-GTP: 1 IU/L
3 mg/kg, 9 h, dose level Low
  TERMINAL_BW: 200.1 g
  APTT: 19.8 s
  Bas: 0%
  Eos: 1%
  Fbg: 303.6 mg/dL
  Hb: 13.4 g/dL
  Ht: 39%
  Lym: 78.2%
  MCH: 20.9 pg
  MCHC: 34.4%
  MCV: 60.7 fL
  Mono: 2.6%
  Neu: 17.8%
  PT: 16.3 s
  Plat: 115.2 x10_4/uL
  RBC: 643 x10_4/ul
  Ret: 7.8%
  WBC: 92.4 x10_2/uL
  KIDNEY_L: 0.9 g
  KIDNEY_R: 0.9 g
  KIDNEY_TOTAL: 1.8 g
  LIVER: 8.3 g
  A/G: 1.2
  ALP: 1371.2 IU/L
  ALT: 36 IU/L
  AST: 70.6 IU/L
  BUN: 12.4 mg/dL
  CRE: 0.1 mg/dL
  Ca: 10.6 mg/dL
  Cl: 107.8 meq/L
  DBIL: 0.002 mg/dL
  GLC: 181.6 mg/dL
  IP: 9.8 mg/dL
  K: 4.5 meq/L
  LDH: 253.4 IU/L
  Na: 141.6 meq/L
  PL: 134.4 mg/dL
  RALB: 2.9 g/dL
  TBIL: 0.012 mg/dL
  TC: 69.8 mg/dL
  TG: 97.8 mg/dL
  TP: 5.4 g/dL
  gamma-GTP: 1 IU/L
3 mg/kg, 24 h, dose level Low
  TERMINAL_BW: 217.8 g
  APTT: 21.2 s
  Bas: 0%
  Eos: 1%
  Fbg: 292 mg/dL
  Hb: 13.6 g/dL
  Ht: 39.7%
  Lym: 80.8%
  MCH: 21.3 pg
  MCHC: 34.2%
  MCV: 62.4 fL
  Mono: 3%
  Neu: 14.4%
  PT: 16.2 s
  Plat: 113.1 x10_4/uL
  RBC: 636.6 x10_4/ul
  Ret: 7.5%
  WBC: 92.6 x10_2/uL
  KIDNEY_L: 1 g
  KIDNEY_R: 1 g
  KIDNEY_TOTAL: 1.9 g
  LIVER: 10 g
  A/G: 1.3
  ALP: 1864.4 IU/L
  ALT: 46.8 IU/L
  AST: 80 IU/L
  BUN: 15.6 mg/dL
  CRE: 0.1 mg/dL
  Ca: 10.8 mg/dL
  Cl: 107.8 meq/L
  DBIL: 0.002 mg/dL
  GLC: 197.4 mg/dL
  IP: 7.2 mg/dL
  K: 4.1 meq/L
  LDH: 293.2 IU/L
  Na: 141.6 meq/L
  PL: 146.8 mg/dL
  RALB: 3.1 g/dL
  TBIL: 0.032 mg/dL
  TC: 74.4 mg/dL
  TG: 107 mg/dL
  TP: 5.5 g/dL
  gamma-GTP: 1 IU/L
